Tests used:
Hela cells = test: Test for cell activity (Hela cells, interferon γ, kynurenine read at 480 nm); format: cell-based; conditions: human interferon γ 50 ng/mL, 48 h
Protocol: Hela cells (100 μL) were inoculated on a 96-well plate at an inoculation amount of 5×10^3 per well and grown overnight. The next day, after the compound was diluted, 1 μL was added to a 96-well plate and then 100 μL of medium containing human interferon y (final concentration of 50 ng/mL) was added to the 96-well plate to allow the final volume to be 200 μL. 48 h after incubating, 140 μL of supernatant in each well was transferred to a new 96-well plate. 10 μL of 6.1 N trichloroacetic acid was added to each well and mixed and incubated at 50° C. for 30 min, IDO catalyzed N-formyl canine urea to become canine urea. The reaction mixture was centrifuged at 2500 rpm for 10 minutes to remove the precipitate. 100 μL of supernatant in each well was transferred to a new 96-well plate and mixed with 100 μL of 2% dimethylaminobenzaldehyde acetic acid solution. After the canine urea was separated, the value was measured at 480 nm using a SPECTRAmax i3 reader.

IDO enzyme = IDO enzyme (Homo sapiens (Human), UniProt P14902); test: IDO enzyme inhibitory activity; format: biochemical; conditions: OD321 nm, 60 min
Sequence of IDO enzyme (P14902 whole entry): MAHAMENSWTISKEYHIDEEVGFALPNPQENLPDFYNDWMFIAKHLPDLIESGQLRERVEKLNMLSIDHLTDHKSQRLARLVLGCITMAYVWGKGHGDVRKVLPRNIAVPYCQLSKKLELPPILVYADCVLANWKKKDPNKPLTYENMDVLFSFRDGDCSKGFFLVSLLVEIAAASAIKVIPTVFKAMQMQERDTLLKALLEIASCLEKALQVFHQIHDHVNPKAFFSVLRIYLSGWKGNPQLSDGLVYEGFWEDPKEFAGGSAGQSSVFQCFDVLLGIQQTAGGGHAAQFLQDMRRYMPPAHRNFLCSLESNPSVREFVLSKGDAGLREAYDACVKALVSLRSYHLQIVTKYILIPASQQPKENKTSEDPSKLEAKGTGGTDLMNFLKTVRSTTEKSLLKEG
Protocol: Firstly, the IDO gene was amplified by PCR, the PCR amplification products were recovered, and then the pET28a plasmid (purchased from Shanghai Baoman Biotechnology Co., Ltd.) and the IDO gel recovery products were digested with EcoR I and Xho I restriction endonucleases (37° C., digestion for 2 h), electrophorized and recovered. The recovered products were ligated overnight by a T4 ligase and then the ligation products were added to DH5α competent cells, placed on ice for 30 min, heat-shocked at 42° C. for 90 s, cultured on a shaker, and seeded to a plate. Monoclonies were picked, identified by PCR and then by sequencing.
The constructed BL21 containing the pET28a-IDO plasmid was cultured at 37° C. to OD600=0.6-0.8, and a final concentration of 7 μM of chlorine methemoglobin and 1 mM of IPTG (isopropyl-β-D-thiogalactoside) were added for induction at 28° C. for 4 h; after the induction, the cell was centrifuged at 6000 rpm at 4° C., the collected cells were washed once with 20 mM PBS (pH6.5), and centrifuged and collected again.
The collected cells were resuspended with a lysis solution (20 mM PBS pH 6.5), ultrasonically lysed (40% of power, lysis for 20 min, placed on ice), the lysed bacteria were centrifuged at 13000 rpm for 15 min, precipitate was discarded and the supernatant was maintained; the nickel column was equilibrated with the lysis solution (20 mM PBS pH 6.5) for 3 column volumes, and then the lysis supernatant was loaded onto the nickel column; after loading, four column volumes of a rinsing solution (20 mM PBS pH 6.5, 20 mM imidazole) were used for washing, and finally protein was eluted with eluent (20 mM PBS pH 6.5, 250 mM imidazole); the eluted protein solution was dialyzed for 4 h, and the dialysis solution was 20 mM PBS, pH 6.5. After the dialysis, the protein sample was concentrated, packed, flash frozen by liquid nitrogen, and stored at −80° C. for further use.
Firstly, the compound was subject to a 3-fold gradient dilution. 1 μL of each concentration was added to a 96-well plate; 50 μL of the IDO enzyme solution (final concentration 600 ng/100μL) was added: 25 μL of substrate 1 mixture solution was added, 25 μL of substrate 2 mixture solution was added to initiate the reaction. Finally, the plate was read at OD321 nm, 60 min.

Structure (SMILES)	IC50 (Hela cells) [nM]	IC50 (IDO enzyme) [nM]
CCC(C)(C)C(=O)O/N=C(\Nc1ccc(F)c(Br)c1)c1nonc1NCCS(C)(=O)=NC#N (racemic) [compound 13, (±) (Z)—N-(3-bromo-4-fluorophenyl)-N′-hydroxy(thio-methylsulfoxidecyanoamine)ethyl)amino)-1,2,5-oxadiazole-3-(2,2-dimethyl) butyrate]	14	180
CS(=O)(CCCCNc1nonc1/C(=N/O)Nc1ccc(F)c(Br)c1)=NC#N (racemic) [compound 11, (±) (Z)—N-(3-bromo-4-fluorophenyl)-N′-hydroxy-4-((4-(thio-methylsulfoxidecyanoamine)butyl)amino)-1,2,5-oxadiazole-3-carboxamidine]	7.6	55
CS(=N)(=O)CCCCNc1nonc1/C(=N/O)Nc1ccc(F)c(Br)c1 (racemic) [compound 3, (±)(Z)—N-(3-bromo-4-fluorophenyl)-N′-hydroxy-4-((4-(thio-methylsulfoxideimine)butyl)amino)-1,2,5-oxadiazole-3-carboxamidine]	8	74
CS(=N)(=O)CCCCNc1nonc1/C(=N/O)Nc1cccc(C(F)(F)F)c1 (racemic) [compound 5, (±)(Z)—N′-hydroxy-4-((4-(thio-methylsulfoxideimine)butyl)amino)-N-(3-(trifluoromethyl)phenyl)-1,2,5-oxadiazole-3-carboxamidine]	< 76	< 3600
CS(=N)(=O)CCCCNc1nonc1/C(=N/O)Nc1ccc(F)c(C(F)(F)F)c1 (racemic) [compound 4, (±)(Z)—N-(4-fluoro-3-(trifluoromethyl)phenyl)-N′-hydroxy-4-((4-(thio-methylsulfoxideimine)butyl)amino)-1,2,5-oxadiazole-3-carboxamidine]	< 500	< 19000
CS(=O)(CCCCNc1nonc1/C(=N/O)Nc1ccc(F)c(Cl)c1)=NC#N (racemic) [compound 12, (±)(Z)—N-(3-chloro-4-fluorophenyl)-N′-hydroxy-4-((4-(thio-methylsulfoxidecyanoamine)butyl)amino)-1,2,5-oxadiazole-3-carboxamidine]	2.8	< 18000
CC(C)C(=O)O/N=C(\Nc1ccc(F)c(Br)c1)c1nonc1NCCS(C)(=O)=NC#N (racemic) [compound 14, (±)(Z)—N-(3-Br-4-fluorophenyl)-N′-hydroxy-4-((2-(thio-methylsulfoxidecyanoamine)ethyl)amino)-1,2,5-oxadiazole-3-isobutyrate]	2.2	120
CS(=O)(CCNc1nonc1/C(=N/O)Nc1ccc(F)c(Br)c1)=NC#N (single isomer, unassigned) [compound 6B]	0.6	< 82
CS(=O)(CCNc1nonc1/C(=N/O)Nc1ccc(F)c(Br)c1)=NC#N (single isomer, unassigned) [compound 6A]	0.3	< 88
CS(=O)(CCCNc1nonc1/C(=N/O)Nc1ccc(F)c(Cl)c1)=NC#N (racemic) [compound 10, (±) (Z)—N-(3-chloro-4-fluorophenyl)-N′-hydroxy-4-((3-(thio-methylsulfoxidecyanoamine)propyl)amino)-1,2,5-oxadiazole-3-carboxamidine]	2.8	< 5000
CS(=O)(CCCNc1nonc1/C(=N/O)Nc1ccc(F)c(Br)c1)=NC#N (racemic) [compound 9, (±) (Z)—N-(3-bromo-4-fluorophenyl)-N′-hydroxy-4-((3-(thio-methylsulfoxidecyanoamine)propyl)amino)-1,2,5-oxadiazole-3-carboxamidine]	4.7	35
c1ccc(-c2cnc[nH]2)cc1 [5-phenyl-1-imidazole, reference compound]	> 50000	
C[S@@](=N)(=O)CCNc1nonc1/C(=N/O)Nc1ccc(F)c(Br)c1 [compound 1A]	< 70	< 5600
CS(=N)(=O)CCCNc1nonc1/C(=N/O)Nc1ccc(F)c(Br)c1 (racemic) [compound 2, (±)(Z)—N-(3-bromo-4-fluorophenyl)-N′-hydroxy-4-((3-(thio-methylsulfoxideimine)propyl)amino)-1,2,5-oxadiazole-3-carboxamidine]	< 100	< 3000
N=S(=O)(CCNc1nonc1/C(=N/O)Nc1ccc(F)c(Br)c1)c1ccccc1 (racemic) [compound 7, (±) (Z)—N-(3-bromo-4-fluorophenyl)-N′-hydroxy-4-((2-(thio-phenylsulfoxideimine)ethyl)amino)-1,2,5-oxadiazole-3-carboxamidine]	< 260	< 2600
CC(C)(C)C(=O)O/N=C(\Nc1ccc(F)c(Br)c1)c1nonc1NCCS(C)(=O)=NC#N (racemic) [compound 15, (±)(Z)—N-(3-bromo-4-fluorophenyl)-N′-hydroxy-4-((2-(thio-methylsulfoxidecyanoamine)ethyl)amino)-1,2,5-oxadiazole-3-trimethyl acetate]	47	360
CS(=N)(=O)CCCNc1nonc1/C(=N/O)Nc1cccc(S(F)(F)(F)(F)F)c1 (racemic) [compound 8]	< 800	< 14000
CS(=N)(=O)CCNc1nonc1/C(=N/O)Nc1ccc(F)c(Br)c1 (racemic) [compound 1, (±) (Z)—N-(3-bromo-4-fluorophenyl)-N′-hydroxy-4-((2-(thio-methylsulfoxideimine)ethyl)amino)-1,2,5-oxadiazole-3-carboxamidine]	40	22
C[S@](=N)(=O)CCNc1nonc1/C(=N/O)Nc1ccc(F)c(Br)c1 [compound 1B]	< 80	< 5200
